These results are taken from patent US20200319201A1, “METHODS FOR MONITORING TUBERCULOSIS MEDICATION” (priority 2017, published 2020).

The data set can be described thus: Liquid chromatography mass spectrometry analysis of fingerprint sweat samples for Tuberculosis medication and metabolite. The class given is in vivo, human. As to conditions: for percentage of fingerprint samples in which detected: 75 samples; for number of fingerprint samples in which detected (of 25 fingerprints): 5 subjects who had finished a course of Isoniazid at least 72 hours previously. The protocol:
All subjects from whom fingerprint samples were taken were human. Fingerprints were taken from the five fingers (i.e. the four fingers and the thumb) of each subject's right hand: • without the hand having been washed; or • after the hand has been washed with soap and water, and covered with a clean surgical glove for 10 minutes, without contacting any other surface.
The chromatography paper with fingerprint samples thereon were placed in a 2 ml Eppendorf microcentrifuge tube, following which an extraction solution (1.5 ml of 10% dichloromethane in methanol) was added. The tube was then centrifuged for 2 min (at 9.5 centrifugal force). The solvent extract was evaporated to dryness under a stream of nitrogen at room temperature (20° C.) and reconstituted in 100 μl mobile phase solution (95:5 water/acetonitrile+0.1% formic acid+iosotopically labelled internal standards) before being vortexed and transferred to a 300 μl glass micro-insert vial, with 5 μl being injected onto an LC-MS/MS system.
Chromatographic separation was performed on a Thermo Scientific™ Ultimate3000 UHPLC system equipped with a binary solvent manager, column manager and autosampler. The injection volume was 5 μL. Separation was performed on a Kinetex XB-C18 column (100×2.1 mm, 5 μm) operated at 30° C. at a flow rate of 0.25 ml/min. Mobile phase comprises 95% H2O (0.1% formic acid) and 5% acetonitrile (ACN) (0.1% formic acid).
The prepared samples were introduced to a Thermo Orbitrap Q-Exactive Plus mass spectrometer using the standard ESI interface with a capillary temperature of 320° C. and spray voltage 3 kV. Positive mass spectra were acquired in full scan mode within a range of m/z 50-500 at a mass resolution of 70 000 at m/z 200.

[1] abbreviates: after washing hands using soap and water, same subjects as Example 1, isoniazid 300 mg (one 400 mg).
[2] abbreviates: after washing hands using soap and water, same subjects as Example 1.
The mark [3] stands for this setting: hands not washed, approximately 3 hours after 300 mg isoniazid (one subject 400 mg), 15 subjects.
Setting [4] is: hands not washed, approximately 3 hours after 300 mg isoniazid (one subject 400 mg).
Setting [5] is: hands washed using soap and water.
[6] abbreviates: sample obtained 2 hours after the subject had taken Isoniazid.
[7] abbreviates: sample obtained 72 hours after the subject had taken Isoniazid.

With `CC(=O)NNC(=O)c1ccncc1` [Acetylisoniazid], the “number of fingerprint samples in which detected (out of the 75 fingerprint samples)” value is, setting by setting: under setting [1], 72; under setting [3], 73. Further, the “percentage of fingerprint samples in which detected” value reads like this: under setting [2], 96%; under setting [4], 97%. The “number of fingerprint samples in which detected (of 25 fingerprints)” value (from here on “number … (of 25 fingerprints)”) (hands not washed) was found to be 0 and the “number … (of 25 fingerprints)” value under setting [5] came out at 0. The “presence in fingerprint sweat sample” value under setting [6] is listed as “shows the presence” and the “presence in fingerprint sweat sample” value under setting [7] was “does not show the presence”.
In the case of `NNC(=O)c1ccncc1` [Isoniazid], the “number of fingerprint samples in which detected (out of the 75 fingerprint samples)” value reads like this: under setting [1], 40; under setting [3], 51. Moreover, the “percentage of fingerprint samples in which detected” value is, setting by setting: under setting [2], 53%; under setting [4], 68%. Besides, the “number … (of 25 fingerprints)” value (hands not washed) was determined as 0 and the “number … (of 25 fingerprints)” value under setting [5] came out at 0. Moreover, the “presence in fingerprint sweat sample” value by setting is: under setting [6], “shows the presence”; under setting [7], “does not show the presence”.
`NC(=O)c1cnccn1` [pyrazinamide, Pyrazinamide]: the “presence in fingerprint sample” value (approximately 3 hours after 1,000 mg pyrazinamide, hands washed) is “presence of pyrazinamide is evidenced”.
